Reference: ChEMBL document CHEMBL1158210, “New Destruxins from the Entomopathogenic Fungus Aschersonia sp” (1996)
Values after ≈ are worked out from the molar mass of the structure shown. Active and inactive are the calls of the source. The calls are words filed in the database; no cut-off is given here. Starred links: 1 amine or outer side, 2 acyl side, 3 side chain; linkers in the order of their positions; H or OH if unused. Non-standard residues stand in square brackets, D forms with d. Residues, ends and D or L forms follow the SMILES beside them. NMeI = CC[C@H](C)[C@H](NC)C(=O)O; X1 = C=CC[C@H](O[*:1])C(=O)[*:2]; Hica(2S) = CC(C)C[C@H](O)C(=O)O; NMeA = CN[C@@H](C)C(=O)O; βAla = NCCC(=O)O

Columns and labels:
Drosophila melanogaster [1] = assay: Insecticidal activity against Drosophila melanogaster assessed as mortality at 400 ug/ml after 48 hrs; type: functional, organism-based
Drosophila melanogaster [2] = assay: Insecticidal activity against Drosophila melanogaster assessed as mortality at 200 ug/ml after 40 hrs; type: functional, organism-based
Drosophila melanogaster [3] = assay: Insecticidal activity against Drosophila melanogaster after 40 hrs; type: functional

| SMILES | Activity (Drosophila melanogaster [1]) | Activity (Drosophila melanogaster [2]) | LC50 (Drosophila melanogaster [3]) [µg/mL] |
| --- | --- | --- | --- |
| CC[C@H](C)[C@@H]1NC(=O)[C@@H]2CCCN2C(=O)[C@H](CC(C)C)OC(=O)CCNC(=O)[C@H](C)N(C)C(=O)[C@H]([C@@H](C)CC)N(C)C1=O (cyclo(I[NMeI][NMeA][βAla][Hica(2S)]P)) | inactive |  |  |
| C=CCC1OC(=O)CCNC(=O)[C@H](C)N(C)C(=O)[C@H]([C@@H](C)CC)N(C)C(=O)[C@H]([C@@H](C)CC)NC(=O)[C@@H]2C(C)CCN2C1=O (stereo not given in full) [DESTRUXIN A5] |  | Active | 52 (≈ 85.8 µM) |
| C=CC[C@@H]1OC(=O)CCNC(=O)[C@H](C)N(C)C(=O)[C@H]([C@@H](C)CC)N(C)C(=O)[C@H]([C@@H](C)CC)NC(=O)[C@@H]2CCCN2C1=O [destruxin A4] (cyclo(I[NMeI][NMeA][βAla][X1]P)) |  | Active | 41 (≈ 69.3 µM) |
